Measurements taken from PMC8910920 (International Journal of Molecular Sciences, 2022).

Tests used:
rTRPM8 = molecular target: T1, rTRPM8 (Rattus norvegicus, UniProt Q8R455); experiment: Whole-cell patch-clamp, HEK293-rTRPM8 cells; assay type: cell-based
T1 construct: expressed in transfected cells
Experimental: To confirm the antagonistic activity, electrophysiology (patch-clamp) studies were performed on HEK293 cells expressing the rTRPM8 channel. […] Then, using a holding voltage of −60 mV, different concentrations of RGM8-51 were used to establish the concentration/response curve for rTRPM8 current blockade.
Whole-cell patch-clamp recordings from HEK293-rTRPM8 cells were carried out 2 days after seeding on 12 mm Ø glass coverslips treated with poly-L-lysine solution (Sigma Aldrich, Spain); the intracellular pipette solution contained (in mM) 150 NaCl, 5 EGTA, 3 MgCl2 and 10 HEPES, adjusted to pH 7.2 with NaOH, and the extracellular solution contained (in mM) 150 NaCl, 6 CsCl, 1.5 CaCl2, 1 MgCl2, 10 D-glucose and 10 HEPES, adjusted to pH 7.4 with NaOH. The TRPM8 activity was measured by the application of two pulses of 100 μM menthol in a time interval of 2 min and a 30 s perfusion of the different compound concentrations before the second menthol pulse.
(§1) Data were sampled at 10 kHz (EPC10 amplifier with PatchMaster 2.53 software, HEKA Electronics, Lambrecht, Germany) and low-pass filtered at 3 kHz for analysis (PatchMaster 2.53 and GraphPad Prism 6.0, Graphpad Software, San Diego, CA, USA). The series resistance was <10 MΩ and to minimize voltage errors was compensated by 60–80%. […] Cell capacitance was measured and used to estimate the current density (J, pA/pF).
Data analysis: For the whole-cell patch-clamp experiments, results are expressed as the percentage of remaining activation of the TRPM8 channel. This is calculated by normalizing the ratio (p2/p1) of testing conditions to the ratio (p2/p1) of the control condition. […] All data are expressed as the mean ± standard error of the mean (SEM) (n = 5–8). In the current-clamp experiments, the change in membrane potential is expressed as the difference between the resting membrane potential and the membrane potential after the addition of a stimuli. Data were analyzed as previously described (GraphPad 6.0, one-way ANOVA followed by Bonferroni multiple comparisons test, and ROUT method, Q = 10%).

[1] = tested on: voltage-activated Na+ and K+ currents; experiment: Whole-cell voltage-clamp, voltage-activated currents in rat DRG neurons; assay type: cell-based; conditions: 1 µM, depolarization pulse to +10 mV
Experimental: We also investigated the effect of RGM8-51 on native TRPM8 channels from rat DRG neurons. Whole-cell patch-clamp recordings from small size DRG neurons evidenced menthol (100 µM)-activated inward currents at a holding voltage of −80 mV (Figure 3A). As expected from results obtained in rTRPM8-expressing HEK293 cells, RGM8-51 (1 µM) inhibited menthol-activated currents.
Voltage-activated Na^+ and K^+ currents and TRPM8-mediated currents were recorded in DRG neurons isolated from 6-8 weeks old Sprague-Dawley rats, as previously described. Rats were sacrificed by cervical dislocation followed by decapitation and lumbar segments of the spinal column were removed and placed in a cold Ca^2+, Mg^2+-free Hank’s solution (Sigma-Aldrich, Madrid, Spain). The bone surrounding the spinal cord was removed and the right L4, L5 and L6 DRG were exposed and pulled out. […]
as §1, with “USA).” for “USA). The series resistance was <10 MΩ and to minimize voltage errors was compensated by 60–80%.”

T1 sequence (Q8R455 whole entry): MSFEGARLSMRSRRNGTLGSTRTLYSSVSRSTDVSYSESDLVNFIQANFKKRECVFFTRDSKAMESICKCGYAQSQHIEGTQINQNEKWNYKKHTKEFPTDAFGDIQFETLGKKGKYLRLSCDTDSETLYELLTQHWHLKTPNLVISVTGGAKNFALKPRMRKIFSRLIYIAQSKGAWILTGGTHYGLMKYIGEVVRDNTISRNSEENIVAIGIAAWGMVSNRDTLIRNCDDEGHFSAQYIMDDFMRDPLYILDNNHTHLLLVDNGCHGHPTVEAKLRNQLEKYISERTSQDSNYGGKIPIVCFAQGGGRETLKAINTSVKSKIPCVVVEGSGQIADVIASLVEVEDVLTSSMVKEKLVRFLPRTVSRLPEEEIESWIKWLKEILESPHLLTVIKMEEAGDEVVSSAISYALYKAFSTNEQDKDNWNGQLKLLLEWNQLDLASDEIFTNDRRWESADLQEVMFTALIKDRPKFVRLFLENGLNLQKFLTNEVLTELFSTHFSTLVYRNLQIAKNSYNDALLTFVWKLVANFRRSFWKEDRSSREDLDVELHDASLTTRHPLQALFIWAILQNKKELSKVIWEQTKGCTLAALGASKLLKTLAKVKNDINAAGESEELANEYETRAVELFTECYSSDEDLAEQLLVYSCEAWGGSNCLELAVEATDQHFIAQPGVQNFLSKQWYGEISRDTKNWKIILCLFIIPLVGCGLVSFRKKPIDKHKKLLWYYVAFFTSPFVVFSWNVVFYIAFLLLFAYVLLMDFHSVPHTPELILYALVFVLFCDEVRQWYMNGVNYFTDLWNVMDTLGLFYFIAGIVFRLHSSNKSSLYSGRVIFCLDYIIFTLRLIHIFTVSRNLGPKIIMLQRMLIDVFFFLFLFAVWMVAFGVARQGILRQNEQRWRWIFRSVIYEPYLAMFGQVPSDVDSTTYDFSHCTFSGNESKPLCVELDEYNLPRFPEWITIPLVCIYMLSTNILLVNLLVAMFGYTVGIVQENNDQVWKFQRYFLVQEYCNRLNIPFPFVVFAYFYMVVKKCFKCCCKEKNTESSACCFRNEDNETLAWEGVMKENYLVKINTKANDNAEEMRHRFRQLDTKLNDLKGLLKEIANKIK

Question: Which “menthol-evoked outward rectifying current” value (rTRPM8; 10 μM compound, 100 µM menthol) does the source give for C[C@@H]1C(=O)N(C[C@H](Cc2ccccc2)N(Cc2ccccc2)Cc2ccccc2)[C@]1(Cc1ccccc1)C(=O)OC(C)(C)C [RGM8-51, 4(S)-Benzyl-3S-methyl-4-(tert-butoxy)carbonyl-1-[(2′S-dibenzylamino-3′-phenyl)prop-1′-yl]-2-oxoazetidine] here?
Answer: Its value is “clearly reduced”.

Question: What about the IC50 (rTRPM8; HEK293-rTRPM8, 100 μM menthol, holding voltage −60 mV) of the same compound?
Answer: The IC50 was 970 ± 1560 nM.

Question: And the “effect on voltage-activated Na+ and K+ currents” value [1]?
Answer: The value was “had no effect”.
